The record followed here is PubChem BioAssay AID200 (DTP/NCI, 2004).

Where “and” joins values, the source holds several entries; their conditions need not be identical. Equal entries are not always repeated. Inconclusive results and toxic doses are left out.

In the assay the test system is B6C3F1 mice, B16 melanoma ip, median survival T/C. Kind of assay: NCI In Vivo Anticancer Drug Screen. Data for tumor model B16 Melanoma (intraperitoneal) in B6C3F1 mice. To be noted: endpoint: median survival time, higher = longer survival. In outline:
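Tumor-bearing mice received test compound; a separate group got vehicle only. Survival was then compared, with results reported as treated over control.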

Setting [1] is: dose: 50.0 mg/kg/injection, schedule: Q01DX009 (ip), vehicle: Klucel (hydroxypropylcellulose) (HPC).
Where [2] appears, read: dose: 100.0 mg/kg/injection, schedule: Q01DX009 (ip), vehicle: Klucel (hydroxypropylcellulose) (HPC).
Where [3] appears, read: dose: 12.5 mg/kg/injection, schedule: Q01DX009 (ip), vehicle: saline with Tween-80.
Setting [4] is: dose: 1.25 mg/kg/injection, schedule: Q01DX009 (ip), vehicle: saline.
Where [5] appears, read: dose: 2.5 mg/kg/injection, schedule: Q01DX009 (ip), vehicle: saline.
Where [6] appears, read: dose: 5.0 mg/kg/injection, schedule: Q01DX009 (ip), vehicle: saline.
[7] abbreviates: dose: 10.0 mg/kg/injection, schedule: Q01DX009 (ip), vehicle: saline.

For `OC1OC2COC(c3ccccc3)OC2C(O)C1O` (centres undefined), the T/C runs as follows: (dose: 25.0 mg/kg/injection, schedule: Q01DX009 (ip), vehicle: water) 103 % of control; (dose: 50.0 mg/kg/injection, schedule: Q01DX009 (ip), vehicle: water) 96 % of control; (dose: 100.0 mg/kg/injection, schedule: Q01DX009 (ip), vehicle: water) 110 % of control; (dose: 200.0 mg/kg/injection, schedule: Q01DX009 (ip), vehicle: water) 98 % of control; (dose: 400.0 mg/kg/injection, schedule: Q01DX009 (ip), vehicle: water) 94 % of control; (dose: 800.0 mg/kg/injection, schedule: Q01DX009 (ip), vehicle: water) 93 % of control.
As to `CN(C)c1ccc2c(Nc3ccc(NS(C)(=O)=O)cc3)c3ccc(N(C)C)cc3nc2c1`, the T/C was 94 % of control (dose: 25.0 mg/kg/injection, schedule: Q01DX009 (ip), vehicle: Klucel (hydroxypropylcellulose) (HPC)); 115 % of control and 92 % of control under setting [1]; 90 % of control and 104 % of control under setting [2].
Consider `COC(=O)C12OCC34C(CC5C(C)C6=CC(=O)OC6=CC5(C)C3C(O)C1O)OC(=O)C(OC(C)=O)C24` (centres undefined), for which the T/C runs as follows: (dose: 0.12 mg/kg/injection, schedule: Q01DX009 (ip), vehicle: saline + alcohol) 110 % of control; (dose: 0.25 mg/kg/injection, schedule: Q01DX009 (ip), vehicle: saline + alcohol) 109 % of control; (dose: 0.5 mg/kg/injection, schedule: Q01DX009 (ip), vehicle: saline + alcohol) 105 % of control; (dose: 1.0 mg/kg/injection, schedule: Q01DX009 (ip), vehicle: saline + alcohol) 103 % of control; (dose: 2.0 mg/kg/injection, schedule: Q01DX009 (ip), vehicle: saline + alcohol) 109 % of control.
Turning to `C[C@@](O)(/C=C/[C@H]1CC=CC(=O)O1)[C@@H](C[C@@H](O)\C=C/C=C\C=C\CO)OP(=O)(O)O`, the T/C was 98 % of control and 105 % of control (dose: 3.12 mg/kg/injection, schedule: Q01DX009 (ip), vehicle: other); 110 % of control and 102 % of control (dose: 6.25 mg/kg/injection, schedule: Q01DX009 (ip), vehicle: other); 101 % of control and 103 % of control (dose: 12.5 mg/kg/injection, schedule: Q01DX009 (ip), vehicle: other); 99 % of control (dose: 25.0 mg/kg/injection, schedule: Q01DX009 (ip), vehicle: other).
In the case of `O=C(N/N=C/c1cccc(O)c1O)N/N=C/c1cccc(O)c1O`, the T/C under setting [3] is 118 % of control; the T/C (dose: 25.0 mg/kg/injection, schedule: Q01DX009 (ip), vehicle: saline with Tween-80) was 112 % of control; the T/C (dose: 50.0 mg/kg/injection, schedule: Q01DX009 (ip), vehicle: saline with Tween-80) was 116 % of control; the T/C (dose: 100.0 mg/kg/injection, schedule: Q01DX009 (ip), vehicle: saline with Tween-80) is 106 % of control; the T/C (dose: 200.0 mg/kg/injection, schedule: Q01DX009 (ip), vehicle: saline with Tween-80) is 106 % of control.
Take `Cc1c2ccc3ccccc3c2c[n+]2ccccc12`: the T/C runs as follows: (dose: 1.25 mg/kg/injection, schedule: Q01DX009 (ip), vehicle: Klucel (hydroxypropylcellulose) (HPC)) 104 % of control; (dose: 2.5 mg/kg/injection, schedule: Q01DX009 (ip), vehicle: Klucel (hydroxypropylcellulose) (HPC)) 100 % of control; (dose: 5.0 mg/kg/injection, schedule: Q01DX009 (ip), vehicle: Klucel (hydroxypropylcellulose) (HPC)) 112 % of control; (dose: 10.0 mg/kg/injection, schedule: Q01DX009 (ip), vehicle: Klucel (hydroxypropylcellulose) (HPC)) 96 % of control; (dose: 20.0 mg/kg/injection, schedule: Q01DX009 (ip), vehicle: Klucel (hydroxypropylcellulose) (HPC)) 100 % of control.
Turning to `CC(C)c1cc(C(=O)O)c(O)c(C(C)C)c1.CC(C)c1cc(C(=O)O)c(O)c(C(C)C)c1.[Cu]`, the T/C (dose: 1.5 mg/kg/injection, schedule: Q01DX009 (ip), vehicle: saline with Tween-80) is 92 % of control; the T/C (dose: 3.0 mg/kg/injection, schedule: Q01DX009 (ip), vehicle: saline with Tween-80) is 96 % of control; the T/C (dose: 6.0 mg/kg/injection, schedule: Q01DX009 (ip), vehicle: saline with Tween-80) was 97 % of control; the T/C (dose: 12.0 mg/kg/injection, schedule: Q01DX009 (ip), vehicle: saline with Tween-80) is 106 % of control; the T/C under setting [3] is 102 % of control; the T/C (dose: 24.0 mg/kg/injection, schedule: Q01DX009 (ip), vehicle: saline with Tween-80) was 89 % of control.
As to `C1OC1C1CO1` (centres undefined), the T/C runs as follows: under setting [4], 92 % of control and 104 % of control; under setting [5], 91 % of control and 101 % of control (2×); under setting [6], 113 % of control and 103 % of control and 105 % of control; under setting [7], 117 % of control and 122 % of control; (dose: 20.0 mg/kg/injection, schedule: Q01DX009 (ip), vehicle: saline) 118 % of control and 121 % of control; (dose: 40.0 mg/kg/injection, schedule: Q01DX009 (ip), vehicle: saline) 161 % of control.
In the case of `C/C(=N\NC(=O)c1ccncc1)c1ccc(Cl)cc1`, the T/C under setting [4] was 96 % of control, the T/C under setting [5] is 98 % of control and the T/C under setting [6] is 107 % of control.
Consider `Nc1ncc(S(=O)(=O)c2ccc([N+](=O)[O-])cc2)c(N)n1`, for which the T/C was 100 % of control (dose: 75.0 mg/kg/injection, schedule: Q01DX009 (ip), vehicle: saline); 102 % of control (dose: 150.0 mg/kg/injection, schedule: Q01DX009 (ip), vehicle: saline); 87 % of control (dose: 300.0 mg/kg/injection, schedule: Q01DX009 (ip), vehicle: saline).
Regarding `COc1ccc2c3c1OC1C(=O)CCC4C(C2)N(C)CCC314` (centres undefined), the T/C (dose: 31.0 mg/kg/injection, schedule: Q01DX009 (ip), vehicle: saline) is 99 % of control.
Turning to `CC[C@]1(O)C[C@H]2CN(CCc3c([nH]c4ccccc34)[C@@](C(=O)OC)(c3cc4c(cc3OC)N(C)[C@H]3[C@@](O)(C(=O)OC)[C@H](OC(C)=O)[C@]5(CC)C=CCN6CC[C@]43[C@@H]65)C2)C1`, the T/C was 194 % of control (dose: 0.12 mg/kg/injection, schedule: Q01DX009 (ip), vehicle: saline); 161 % of control (dose: 0.12 mg/kg/injection, schedule: Q01DX009 (ip), vehicle: water); 234 % of control (dose: 0.25 mg/kg/injection, schedule: Q01DX009 (ip), vehicle: saline); 171 % of control and 199 % of control and 221 % of control (dose: 0.25 mg/kg/injection, schedule: Q01DX009 (ip), vehicle: water); 215 % of control (dose: 0.5 mg/kg/injection, schedule: Q01DX009 (ip), vehicle: saline); 176 % of control and 212 % of control and 309 % of control (dose: 0.5 mg/kg/injection, schedule: Q01DX009 (ip), vehicle: water). Also, the T/C reads like this: (dose: 15.62 micrograms/kg/injection, schedule: Q01DX009 (ip), vehicle: water) 159 % of control; (dose: 31.25 micrograms/kg/injection, schedule: Q01DX009 (ip), vehicle: water) 154 % of control; (dose: 62.5 micrograms/kg/injection, schedule: Q01DX009 (ip), vehicle: water) 180 % of control; (dose: 125.0 micrograms/kg/injection, schedule: Q01DX009 (ip), vehicle: water) 206 % of control; (dose: 250.0 micrograms/kg/injection, schedule: Q01DX009 (ip), vehicle: water) 206 % of control.
Take `CCCCCCCCCCCCCCCCN(CC)CC`: the T/C was 99 % of control under setting [5], 97 % of control under setting [6] and 90 % of control under setting [7].
Consider `COc1cc(C(=O)c2cocc2C(=O)c2ccc3c(c2)OCO3)cc(OC)c1OC`, for which the T/C by setting is: under setting [1], 92 % of control and 101 % of control; under setting [2], 113 % of control and 91 % of control; (dose: 200.0 mg/kg/injection, schedule: Q01DX009 (ip), vehicle: Klucel (hydroxypropylcellulose) (HPC)) 112 % of control; (dose: 400.0 mg/kg/injection, schedule: Q01DX009 (ip), vehicle: Klucel (hydroxypropylcellulose) (HPC)) 117 % of control.
`C=C(C)/C([O-])=N/[N+](C)(C)CC(O)CCCCCCCCCCCC` (centres undefined): the T/C is 109 % of control (dose: 25.0 mg/kg/injection, schedule: Q01DX001 (ip), vehicle: saline); 114 % of control and 116 % of control (dose: 50.0 mg/kg/injection, schedule: Q01DX001 (ip), vehicle: saline); 114 % of control and 90 % of control (dose: 100.0 mg/kg/injection, schedule: Q01DX001 (ip), vehicle: saline); 86 % of control (dose: 200.0 mg/kg/injection, schedule: Q01DX001 (ip), vehicle: saline).
